Data as given in the NIST ThermoML archive (doi:10.1021/je8004134).

Test: an = ratio of the nth substance listed, in mol/kg
Conditions: 298.15 K, 101 kPa, Liquid; for speed of sound: Sing-around technique in a fixed-path interferometer; for mass density: Vibrating tube method

[O-][Cl+3]([O-])([O-])[O-].[O-][Cl+3]([O-])([O-])[O-].[Zn+2] [zinc perchlorate] + C[S+](C)[O-]
Conditions | mass density [kg/m3] | speed of sound [m/s]
a1 = 0.02918 | 1101.58 | 1485.7
a1 = 0.03465 | 1102.78 | 1486
a1 = 0.05104 | 1106.39 | 1486.9
a1 = 0.06794 | 1110.13 | 1487.8
a1 = 0.08574 | 1114.1 | 1488.8
a1 = 0.1022 | 1117.8 | 1489.7
a1 = 0.119 | 1121.58 | 1490.7
a1 = 0.1435 | 1127.14 | 1492.2
a1 = 0.1685 | 1132.85 | 1493.7

[Cl-].[Cl-].[Zn+2] [zinc chloride] + C[S+](C)[O-]
Conditions | mass density [kg/m3] | speed of sound [m/s]
a1 = 0.05319 | 1100.61 | 1484.1
a1 = 0.0712 | 1102.49 | 1484.2
a1 = 0.0892 | 1104.34 | 1484.5
a1 = 0.107 | 1106.22 | 1484.8
a1 = 0.1251 | 1108.12 | 1485.2
a1 = 0.1517 | 1110.9 | 1485.9
a1 = 0.1776 | 1113.65 | 1486.6

[Ni+2].[O-][Cl+3]([O-])([O-])[O-].[O-][Cl+3]([O-])([O-])[O-] [nickel perchlorate] + CC(=O)N(C)C
Conditions | mass density [kg/m3] | speed of sound [m/s]
a1 = 0.03452 | 943.693 | 1460.5
a1 = 0.06515 | 950.677 | 1464.3
a1 = 0.096 | 957.709 | 1468.2
a1 = 0.1279 | 964.983 | 1472.3
a1 = 0.1604 | 972.395 | 1476.5
a1 = 0.1898 | 979.089 | 1480.4
a1 = 0.2198 | 985.93 | 1484.6
a1 = 0.2504 | 992.904 | 1489

C[S+](C)[O-] [dimethyl sulfoxide] + [Cl][Mn][Cl]
a2 = 0
Conditions | mass density [kg/m3] | speed of sound [m/s]
– | 1095.19 | 1484.1

[Cl][Mn][Cl] [manganese chloride] + CC(=O)N(C)C
Conditions | mass density [kg/m3] | speed of sound [m/s]
a1 = 0.05753 | 942.406 | 1458.5
a1 = 0.1146 | 948.611 | 1461.2
a1 = 0.1691 | 954.924 | 1463.8
a1 = 0.222 | 961.136 | 1466.5
a1 = 0.2756 | 967.302 | 1469.4
a1 = 0.3266 | 973.327 | 1472.2
a1 = 0.3813 | 979.1 | 1475.5
a1 = 0.433 | 984.866 | 1478.6

[Cu+2].[O-][Cl+3]([O-])([O-])[O-].[O-][Cl+3]([O-])([O-])[O-] [copper perchlorate] + CC(=O)N(C)C
Conditions | mass density [kg/m3] | speed of sound [m/s]
a1 = 0.06523 | 950.245 | 1463.1
a1 = 0.09641 | 957.338 | 1466.4
a1 = 0.1434 | 968.019 | 1471.3
a1 = 0.1894 | 978.49 | 1476.5
a1 = 0.2336 | 988.543 | 1481.5
a1 = 0.2774 | 998.499 | 1486.9
a1 = 0.3204 | 1008.3 | 1492.2
a1 = 0.364 | 1018.21 | 1498.1

CC(=O)N(C)C [N,N-dimethylethanamide] + [Cl-].[Cl-].[Zn+2]
a2 = 0
Conditions | mass density [kg/m3] | speed of sound [m/s]
– | 936.22 | 1455.4

[Cl][Ni][Cl] [nickel chloride (NiCl2)] + C[S+](C)[O-]
Conditions | mass density [kg/m3] | speed of sound [m/s]
a1 = 0.01103 | 1096.81 | 1485.1
a1 = 0.01653 | 1097.61 | 1485.5
a1 = 0.02222 | 1098.43 | 1486
a1 = 0.02764 | 1099.21 | 1486.3
a1 = 0.03328 | 1100.03 | 1486.7
a1 = 0.03812 | 1100.72 | 1487.1
a1 = 0.04374 | 1101.53 | 1487.4
a1 = 0.04953 | 1102.36 | 1487.8
a1 = 0.05501 | 1103.13 | 1488.2

[Mn+2].[O-][Cl+3]([O-])([O-])[O-].[O-][Cl+3]([O-])([O-])[O-] [manganese (II) perchlorate] + CC(=O)N(C)C
Conditions | mass density [kg/m3] | speed of sound [m/s]
a1 = 0.03006 | 942.406 | 1459.5
a1 = 0.05909 | 948.611 | 1463.1
a1 = 0.08863 | 954.924 | 1466.8
a1 = 0.1177 | 961.136 | 1470.4
a1 = 0.1466 | 967.302 | 1474.1
a1 = 0.1747 | 973.327 | 1477.6
a1 = 0.2018 | 979.1 | 1481.2
a1 = 0.2287 | 984.866 | 1485

C[S+](C)[O-] [dimethyl sulfoxide] + [Mn+2].[O-][Cl+3]([O-])([O-])[O-].[O-][Cl+3]([O-])([O-])[O-]
a2 = 0
Conditions | mass density [kg/m3] | speed of sound [m/s]
– | 1095.19 | 1484.1

[Cu+2].[O-][Cl+3]([O-])([O-])[O-].[O-][Cl+3]([O-])([O-])[O-] [copper perchlorate] + C[S+](C)[O-]
Conditions | mass density [kg/m3] | speed of sound [m/s]
a1 = 0.01425 | 1098.31 | 1485
a1 = 0.02779 | 1101.26 | 1485.9
a1 = 0.0419 | 1104.35 | 1486.8
a1 = 0.05636 | 1107.54 | 1487.7
a1 = 0.07067 | 1110.7 | 1488.7
a1 = 0.08366 | 1113.58 | 1489.5
a1 = 0.09783 | 1116.73 | 1490.4
a1 = 0.1114 | 1119.78 | 1491.4
a1 = 0.1251 | 1122.85 | 1492.2
a1 = 0.1384 | 1125.85 | 1493.3

CC(=O)N(C)C [N,N-dimethylethanamide] + [Mn+2].[O-][Cl+3]([O-])([O-])[O-].[O-][Cl+3]([O-])([O-])[O-]
a2 = 0
Conditions | mass density [kg/m3] | speed of sound [m/s]
– | 936.213 | 1455.4

[Cl][Cu][Cl] [copper chloride] + CC(=O)N(C)C
Conditions | mass density [kg/m3] | speed of sound [m/s]
a1 = 0.04793 | 941.347 | 1456.2
a1 = 0.09502 | 946.26 | 1457.1
a1 = 0.139 | 950.849 | 1458
a1 = 0.1852 | 955.662 | 1458.9
a1 = 0.2306 | 960.406 | 1459.9
a1 = 0.2755 | 965.086 | 1460.9
a1 = 0.3194 | 969.661 | 1461.9
a1 = 0.364 | 974.319 | 1462.9
